Measurements published in paper PMC8560999 (The Journal of Biological Chemistry, 2021).
Where two headings read alike, the source gives them in different places.

Assays:
[1] = target: 4-hydroxy-2-keto-heptane-1,7-dioate aldolase from Acinetobacter baumannii (Acinetobacter baumannii); experiment: SEC; Superdex 200 Increase 10/300 GL, 10 mM HEPES pH 7.0 with 150 mM NaCl, 0.5 ml/min, 25 °C, calibrated with protein standards of 12.4-440 kDa
[2] = target: 4-hydroxy-2-keto-heptane-1,7-dioate aldolase from Acinetobacter baumannii (Acinetobacter baumannii); experiment: crystal structure; 11 structures of AbHpaI (apo and with M2+ and ligands), monoclinic C2 crystals, trimer per asymmetric unit, hexamer by twofold rotational symmetry; crystals grown with sodium acetate pH 4.6, CaCl2 and 30% MPD
AbHpaI•Zn^2+ [3] = format: biochemical, Acinetobacter baumannii
AbHpaI•Zn^2+ [4] = format: biochemical, Acinetobacter baumannii; remark: listed apart in the source
AbHpaI•Zn^2+ [5] = experiment: Steady-state aldol cleavage followed as substrate depletion by RapidFire high-throughput mass spectrometry in 10 mM HEPES pH 7.0 with 0.1 mM Zn2+ and 5 uM ((4R)-KDGal) or 40 uM ((4S)-KDGlu) enzyme, Michaelis-Menten fit.; format: biochemical
Experimental: The aldol cleavage steady-state kinetics of (4R)-KDGal and (4S)-KDGlu catalyzed by AbHpaI•Zn^2+ were carried out using RapidFire high-throughput mass spectrometry. The reactions contained 0.1 mM ZnCl2 and the purified AbHpaI in buffer H and varying concentrations of the substrate. […] Before RapidFire analysis, the reaction was quenched by an equal volume of ACN at various times (0.5–30 min) and the quenched solution was centrifuged at 12,000g for 10 min and filtered by a 0.22-μm nylon membrane syringe filter (FilterBio Nylon Syringe Filter) to obtain the filtrate of the remaining substrate. The substrate control reaction without the enzyme was performed. […] Peak areas of the remaining substrate were measured in a negative mode with a quantitative selected ion monitoring (SIM) mode to detect the m/z 177.0 ([M-H]^−) of both (4R)-KDGal and (4S)-KDGlu, and the concentrations were determined from the calibration plot of substrate standard concentrations (0.025–3.2 mM) versus peak areas. The initial velocity (νo) of the substrate depletion from each individual concentration of substrate was calculated from the slope of the plot between the remaining substrate and time. The plots of νo versus each substrate concentration were analyzed by Michaelis–Menten equation using the Levenberg–Marquardt algorithms in GraphPad Prism version 7 software (GraphPad Software, Inc) to determine Km and kcat.

BxBphI = details: cited from earlier work
AbHpaI [6] = format: biochemical, Acinetobacter baumannii
AbHpaI [7] = format: physicochemical, Acinetobacter baumannii
AbHpaI [8] = format: binding, Acinetobacter baumannii
AbHpaI [9] = format: physicochemical, Acinetobacter baumannii; remark: listed apart in the source
AbHpaI•Zn^2+ [10] = details: read-out: Km (mM), aldol condensation of (4R)-KDGal synthesis, D-glyceraldehyde varied
EcHpaI = details: cited from earlier work
AbHpaI•Mn^2+ = experiment: Isothermal titration calorimetry (MicroCal PEAQ-ITC) of 10 mM pyruvate into 40 uM apo-AbHpaI mixed with metal ion at 10 times its Kd, 50 mM HEPES pH 7.0, 25 °C, one-site binding model.
Experimental: (§1) The Kd values for the binding of AbHpaI with ligands including M^2+ ions (Zn^2+, Co^2+, Mn^2+, Mg^2+, and Ca^2+) and pyruvate were measured by MicroCal PEAQ-ITC technique (Malvern Panalytical). Briefly, a 10-ml solution of apo-AbHpaI (200 μM) was dialyzed in 2 l of buffer F at 4 °C for 16 to 18 h. The dialyzed buffer was used to prepare a stock solution of each ligand. To measure the Kd value for the AbHpaI•M^2+ complex, a 200-μl solution of the apo-AbHpaI (40 μM) was loaded into the sample cell and the Milli-Q Type I ultrapure water was used as a reference. Three microliters of 1.5 mM ligand solution of each M^2+ in a syringe was continuously titrated into the sample cell (0.3 μM per each injection for 13 injections) until the ligand binding reached an equilibrium at 25 °C. The Microcal PEAQ-ITC analysis software was used to calculate the Kd using the one-site binding model. To determine the pyruvate binding constant to AbHpaI, a 200-μl solution of the apo-AbHpaI (40 μM) was placed in the sample cell and sequentially titrated with 3 μl of 10 mM pyruvate solution from a syringe. To determine the pyruvate binding constant to the AbHpaI•M^2+ complex, a 200-μl solution of the mixture of apo-AbHpaI (40 μM) and 10 Kd of each M^2+ was placed in the sample cell and sequentially titrated with 3 μl of a 10 mM solution mixture of pyruvate and 10 Kd of each M^2+.

AbHpaI•Co^2+ = experiment: as above
Experimental: as §1

AbHpaI•Zn^2+ [11] = experiment: as above
Experimental: as §1

4-hydroxy-2-keto-heptane-1,7-dioate aldolase from Acinetobacter baumannii (enzyme)
stoichiometry N [1]: 6 | stoichiometry N [2]: 6

O=C(O)C(=O)CC(O)C(O)CO [(4R)-KDGal, (4R)-2-keto-3-deoxy-D-galactonate]
Km (AbHpaI•Zn^2+ [3]): 300 ± 100 µM | kcat (AbHpaI•Zn^2+ [3]): 0.05 ± 0.005 s⁻¹ | kcat of cleavage, fold faster than (4S)-KDGlu (AbHpaI•Zn^2+ [3]): 18 fold | kcat/Km of cleavage, fold greater than (4S)-KDGlu (AbHpaI•Zn^2+ [3]): about 36 fold | turnover number of (4R)-KDGal synthesis (AbHpaI•Zn^2+ [4]): ~1.67 s⁻¹

O=C(O)C(=O)C[C@@H](O)[C@H](O)CO [(4R)-KDGal, (4R)-2-keto-3-deoxy-D-galactonate]
Km (AbHpaI•Zn^2+ [5]): 0.3 ± 0.1 mM

C[C@H](O)CC(=O)C(=O)O [(4S)-HOPA, 4-hydroxy-2-oxopentanoate]
turnover number, aldol cleavage (BxBphI): 4 s⁻¹ | turnover number, condensation (BxBphI): 0.9 s⁻¹

O=C(O)C(=O)C[C@H](O)[C@H](O)CO [(4S)-KDGlu, (4S)-2-keto-3-deoxy-D-gluconate]
(4S)-KDGlu formation as compared to (4R)-KDGal (AbHpaI [6]): 0.1% | kcat (AbHpaI•Zn^2+ [3]): 0.00283 ± 0.00017 s⁻¹ | Km (AbHpaI•Zn^2+ [5]): 0.6 ± 0.1 mM

CC#N [ACN, acetronitrile]
protein stability of AbHpaI perturbed (AbHpaI [7]): 10%

[Ca+2] [Ca^2+]
mole ratio of metal ion per AbHpaI (AbHpaI [8]): 0.1

[Co+2] [Co^2+]
ΔTm (AbHpaI [9]): 3.4 °C | mole ratio of metal ion per AbHpaI (AbHpaI [8]): 0.8

O=C[C@H](O)CO [D-Glyceraldehyde, D-glyceraldehyde]
kcat (AbHpaI•Zn^2+ [4]): 2.048 ± 0.293 s⁻¹ | Km (AbHpaI•Zn^2+ [10]): 10.6 ± 3.6 mM

C[S+](C)[O-] [DMSO, dimethylsulfoxide]
protein stability of AbHpaI perturbed (AbHpaI [7]): 10%

CO [MeOH, methanol]
protein stability of AbHpaI perturbed (AbHpaI [7]): 10%

[Mg+2] [Mg^2+]
mole ratio of metal ion per AbHpaI (AbHpaI [8]): 0.6

[Mn+2] [Mn^2+]
ΔTm (AbHpaI [9]): 1.7 °C | mole ratio of metal ion per AbHpaI (AbHpaI [8]): 0.6

CC(=O)C(=O)O [Pyruvate, pyruvate]
pKa of pyruvate C3-methyl (EcHpaI): ~6.5 | Km (AbHpaI•Zn^2+ [4]): 1600 ± 700 µM | kcat (AbHpaI•Zn^2+ [4]): 1.713 ± 0.265 s⁻¹ | Kd (AbHpaI•Mn^2+): 1320 ± 500 µM | Kd (AbHpaI•Co^2+): 320 ± 40 µM | Kd (AbHpaI•Zn^2+ [11]): 980 ± 60 µM

[Zn+2] [Zn^2+]
Tm (AbHpaI [9]): 87 °C | ΔTm (AbHpaI [9]): 5.7 °C | mole ratio of metal ion per AbHpaI (AbHpaI [8]): 1.1
